According to paper PMC6095626, “Screening of the Pathogen Box for inhibitors with dual efficacy against Giardia lamblia and Cryptosporidium parvum” (PLoS Neglected Tropical Diseases, 2018):
Entries after “also recorded” stand apart in the source; their conditions may differ.

Assays:
[1] = system: G. lamblia trophozoites (luciferase expressing, WBC6); assay: microbe, parasite or virus in culture; assay type: cell-based, Giardia lamblia; conditions: for Giardia (16 uM) Mean % inhibition: initial Pathogen Box screen, single concentration 16 µM, inhibition compared to DMSO wells
Procedure, shortened: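 Incubation ran 24 h at 37 °C under anaerobic conditions, with compound added in equal volume to trophozoites (WBC6, luciferase-expressing, 250,000 cells/mL). Bioluminescence was the read-out, cross-checked by MOXI Z counts on a duplicate plate; metronidazole served as control (1:2 dilutions from 40 μM).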

[2] = system: C. parvum (UGA1 Nluc expressing strain in HCT-8 cells); assay: microbe, parasite or virus in culture; assay type: cell-based, Cryptosporidium parvum; conditions: for Crypto (10 uM) Mean % inhibition: initial Pathogen Box screen, single concentration 10 µM, inhibition compared to DMSO wells
Procedure, shortened: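 Parasite growth quantified by NanoLuc luminescence from lysed infected HCT-8 cells, with EC50 fitted from dose curves. Compounds, single-dose 10 μM or serially diluted, were added to confluent 48 h monolayers before infection with bleached UGA1 Nluc oocysts.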

| SMILES | Giardia (16 uM) Mean % inhibition [1] | Crypto (10 uM) Mean % inhibition [2] | G. lamblia EC50 ([1]; luciferase expressing G. lamblia trophozoites, 24 hours, D-luciferin bioluminescence read-out) | EC50 ([2]; Nluc C. parvum in HCT-8 cells, 48 hours, read-out: C. parvum EC50) |
| --- | --- | --- | --- | --- |
| N#Cc1ccc(-c2ccc(OCC(N)=O)cc2)cc1 [MMV053220] | 74% | 52% |  |  |
| CCOC(=O)NC(=O)c1ccsc1NC(=O)c1nc2ccccc2s1 [MMV090930] | 18% | 59% |  |  |
| Cc1ccc2[nH]c3c(NCCN(C)C)ncnc3c2c1 [MMV006372] | 21% | 64% |  |  |
| COc1ccccc1C(C)NCC(=O)Nc1cc(C(F)(F)F)ccc1Cl (centres unmarked) [MMV020321] | X* (Mean or standard deviation are negative but not significantly different from the control to be a growth promoter) | 83% |  |  |
| Cc1ncc(-c2ccnc(Nc3ccc(S(C)(=O)=O)cc3)n2)n1C(C)C [MMV676604] | 92% | 92% | not effective; also recorded: not potent | 2900 nM |
| O=C(NCCN1CCCC1)c1cc(NCCN2CCOCC2)nc2ccc(Cl)cc12 [MMV634140] | 27% | X* (Mean or standard deviation are negative but not significantly different from the control to be a growth promoter) |  |  |
| CCCCCCCCCCCCCCCCOP(=O)([O-])OCC[N+](C)(C)C [MMV688990] | X* (Mean or standard deviation are negative but not significantly different from the control to be a growth promoter) | X* (Mean or standard deviation are negative but not significantly different from the control to be a growth promoter) |  |  |
| C[C@@H]1[C@H](O)[C@@H](C)/C=C/C=C/C=C/C=C/C=C/C=C/C=C/[C@H](O[C@@H]2O[C@H](C)[C@@H](O)[C@H](N)[C@@H]2O)C[C@@H]2O[C@](O)(C[C@@H](O)C[C@@H](O)[C@H](O)CC[C@@H](O)C[C@@H](O)CC(=O)O[C@H]1C)C[C@H](O)[C@H]2C(=O)O [MMV689000] | 41% | X* (Mean or standard deviation are negative but not significantly different from the control to be a growth promoter) |  |  |
| CCN(CC)S(=O)(=O)c1ccc(C(=O)Nc2cc(C)nn2-c2nc(C)c(C)c(=O)[nH]2)cc1 [MMV595321] | 26% | 92% |  |  |
| COc1ccc(C2=NN(C3CCCCCC3)C(=O)[C@@H]3CC=CC[C@H]23)cc1OCCCCOc1ccc(-c2nn[nH]n2)cc1 [MMV690027] | 24% | 44% |  |  |
| CC(=O)NC[C@H]1CN(c2ccc(-c3ccc(CNCc4cn[nH]n4)cc3)c(F)c2)C(=O)O1 [MMV688327] | 21% | 33% |  |  |
| COC(=O)c1ccc(F)cc1NS(=O)(=O)c1cccc(-c2cnn(Cc3ccccc3)c2)c1 [MMV688350] | -6% | 53% |  |  |
| CCOC(=O)c1noc(N)c1-c1ccccc1 [MMV1236379] | X* (Mean or standard deviation are negative but not significantly different from the control to be a growth promoter) | X* (Mean or standard deviation are negative but not significantly different from the control to be a growth promoter) |  |  |
| CS(=O)(=O)Cc1nc2ccccc2oc1=O [MMV553002] | 12% | 74% |  |  |
| COc1ccc(C2CC(c3cccs3)=NN2C(=O)c2ccco2)cc1OC (centres unmarked) [MMV019234] | 20% | X* (Mean or standard deviation are negative but not significantly different from the control to be a growth promoter) |  |  |
| CC(=O)Nc1ccc(-c2noc(CC3CCCN(Cc4cccc(F)c4C)C3)n2)cc1 (centres unmarked) [MMV689061] | 17% | 59% |  |  |
| COc1cccc(NC(=O)c2c(NC(=O)c3cccnc3)sc3c2CCC3)c1 [MMV228911] | 37% | 39% |  |  |
| C[C@H](c1ccc2c(c1)CCCC2)N(C)c1ncc2c(N)nc(N)nc2n1 [MMV690103] | 49% | 78% |  |  |
| Cc1ccc(NC(=O)c2cc(S(=O)(=O)NC(C)(C)C)ccc2C)nc1 [MMV020289] | 26% | X* (Mean or standard deviation are negative but not significantly different from the control to be a growth promoter) |  |  |
| Cc1cccc(C(=O)Nc2ccnc(N(C)C3CCN(CC(C)C)CC3)c2)c1 [MMV024829] | 89% | X* (Mean or standard deviation are negative but not significantly different from the control to be a growth promoter) |  |  |
| Cc1nc(-c2ccccn2)nc(N2CCC(Cc3ccccc3)C2)c1Cl (centres unmarked) [MMV659004] | 13% | 66% |  |  |
| Cc1ccc2nc(C)c(-c3ccn(Cc4ccccc4)n3)n2c1 [MMV688939] | X* (Mean or standard deviation are negative but not significantly different from the control to be a growth promoter) | 73% |  |  |
| O=C(c1ccc(F)cc1)N(CCNc1ccccc1)c1ccccc1 [MMV676204] | 28% | 55% |  |  |

| SMILES | Giardia (16 uM) Mean % inhibition [1] | Crypto (10 uM) Mean % inhibition [2] | G. lamblia EC50 ([1]; luciferase expressing G. lamblia trophozoites, 24 hours, D-luciferin bioluminescence read-out) | EC50 ([2]; Nluc C. parvum in HCT-8 cells, 48 hours, read-out: C. parvum EC50) |
| --- | --- | --- | --- | --- |
| CC(C)(CN)c1nc(-c2ccc(Cl)c(O)c2)c(-c2ccnc(N)n2)[nH]1 [MMV030734] | 35% | X* (Mean or standard deviation are negative but not significantly different from the control to be a growth promoter) |  |  |
| Cc1ccc(Oc2ccc(NC(=O)CNc3ccccc3N3CCCC3=O)cc2)cc1 [MMV020512] | X* (Mean or standard deviation are negative but not significantly different from the control to be a growth promoter) | 80% |  |  |
| Cc1cc2ccccc2n1CC(=O)N1CC(C(=O)N2CCCCC2)Oc2ccccc21 (centres unmarked) [MMV020520] | 6.36% | 68% |  |  |
| COc1cccc(-c2nc3c(N4CCCC4)cccc3n2CC2CCCN2)n1 (centres unmarked) [MMV687703] | 26% | 77% |  |  |
| CC(C)(C)CN1C(=O)C(c2ccccc2)(c2ccccc2)N=C1N [MMV026550] | 35% | X* (Mean or standard deviation are negative but not significantly different from the control to be a growth promoter) |  |  |
| CNc1cc(C)nc(C2CN(C(=O)c3n[nH]c4ccccc34)CCO2)c1 (centres unmarked) [MMV689709] | 19% | 45% |  |  |
| COc1cccc(-n2nnnc2S(=O)(=O)Cc2ccccc2)c1 [MMV676388] | 38% | 67% |  |  |
| OCc1ccc(-c2cncc(Nc3cccc(Cl)c3)c2)cc1 [MMV026468] | 39% | X* (Mean or standard deviation are negative but not significantly different from the control to be a growth promoter) |  |  |
| O=C(Nc1ccnc(-c2cccnc2)n1)c1cc(C(F)(F)F)cc(C(F)(F)F)c1 [MMV019838] | 16% | 71% |  |  |
| CC(C)(C)c1cc(C(=O)N2CCN(c3nccnc3C#N)CC2)n(Cc2ccccc2)n1 [MMV023949] | 36% | 55% |  |  |
| COc1cc(C2=NCCN2)cc2cc(-c3ccc(C4=NCCN4)cc3)oc12 [MMV688362] | 54% | 67% |  |  |
| CCCCc1ccc(NC(=O)Nc2ccc(O[C@H]3CCCC[C@@H]3N(C)c3ccccc3)c(F)c2)cc1 [MMV676063] | 29% | 82% |  |  |
| Cc1cc(C(=O)Nc2ccc(-c3ccccc3)cc2)no1 [MMV020152] | 43% | X* (Mean or standard deviation are negative but not significantly different from the control to be a growth promoter) |  |  |
| O=C(NC1CC1)c1ccc(CSCc2ccccc2Cl)o1 [MMV007803] | 6% | X* (Mean or standard deviation are negative but not significantly different from the control to be a growth promoter) |  |  |
| Cc1cc(C(=O)Nc2cnn(Cc3ccc(Cl)cc3Cl)c2)no1 [MMV009054] | X* (Mean or standard deviation are negative but not significantly different from the control to be a growth promoter) | 59% |  |  |
| Nc1ncc(-c2ccc(C(F)(F)F)nc2)cc1-c1ccc(C(F)(F)F)nc1 [MMV668727] | 0.605% | 82% |  |  |
| NC(N)=Nc1ccc(-c2ccc(-c3ccc(N=C(N)N)cc3Cl)o2)c(Cl)c1 [MMV688179] | 11% | 56% |  |  |
| Nc1ncnc2c1ncn2[C@@H]1O[C@H](COS(=O)(=O)NC(=O)c2ccccc2O)[C@@H](O)[C@H]1O [MMV687700] | 15% | X* (Mean or standard deviation are negative but not significantly different from the control to be a growth promoter) |  |  |
| COc1cccc(-c2cc3c(Nc4cccnc4)nccc3[nH]2)c1 [MMV392832] | 50% | 68% |  |  |
| Cc1cc(NC(=O)c2ccc(S(=O)(=O)N(Cc3ccccc3)C(C)C)cc2)no1 [MMV007133] | 11% | X* (Mean or standard deviation are negative but not significantly different from the control to be a growth promoter) |  |  |
| CC(=O)N(CCN(C(=O)c1ccc(F)cc1)c1ccccc1)c1ccccc1 [MMV676064] | 28% | 28% |  |  |
| CC1COC(Cn2cncn2)(c2ccc(Oc3ccc(Cl)cc3)cc2Cl)O1 (centres unmarked) [MMV688943] | 81% | 46% |  |  |
